Patent publication US9783532B2, “Molecules having certain pesticidal utilities, and intermediates, compositions, and processes related thereto” (Dow AgroSciences LLC, priority 2013, dated 2017)

How the values were obtained:
Type in all cases: in vivo
[1] = test system: Green Peach Aphid ("GPA") (Myzus persicae); experiment: Bioassay on green peach aphid (GPA), foliar spray on cabbage seedlings; conditions: for mortality at 200 ppm: Myzus persicae, foliar, 72 h, 200 ppm spray on infested cabbage seedlings, three days, Abbott corrected % control, read-out: GPA % Control (or Mortality) rating
Experimental: Certain molecules disclosed in this document were tested against GPA using procedures described in the following example. In the reporting of the results, the “GPA Rating Table” was used (See Table Section).
Cabbage seedlings grown in 3-inch pots, with 2-3 small (3-5 cm) true leaves, were used as test substrate. The seedlings were infested with 20-50 GPA (wingless adult and nymph stages) one day prior to chemical application. Four pots with individual seedlings were used for each treatment. Test compounds (2 mg) were dissolved in 2 mL of acetone/methanol (1:1) solvent, forming stock solutions of 1000 ppm test compound. The stock solutions were diluted 5× with 0.025% Tween 20 in water to obtain the solution at 200 ppm test compound. A hand-held aspirator-type sprayer was used for spraying a solution to both sides of […] leaves until runoff. Reference plants (solvent check) were sprayed with the diluent only containing 20% by volume of acetone/methanol (1:1) solvent. Treated plants were held in a holding room for three days at approximately 25° C. and ambient relative humidity (RH) prior to grading. Evaluation was conducted by counting the number of live aphids per plant under a microscope. Percent Control was measured by using Abbott's correction formula (W. S. Abbott, “A Method of Computing the Effectiveness of an Insecticide” J. Econ. Entomol. 18 (1925), pp. 265-267) as follows. Corrected % Control=100*(X−Y)/X • where • X=No. of live aphids on solvent check plants and • Y=No. of live aphids on treated plants

[2] = test system: Yellow Fever Mosquito "YFM" (Aedes aegypti); conditions: for YFM % Control (or Mortality) rating: about 1 day-old larvae, 96-well plate, room temperature, 3 days
Summary of the method: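 About 1 day-old Aedes aegypti larvae in liver-powder water added to wells holding compound diluted from 4000 ppm DMSO stock with 90:10 water:acetone, 6 replicate plates. Plates kept covered at room temperature for 3 days. Wells scored for mortality and reported as rating categories.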

[3] = test system: Beet Armyworm (Spodoptera exigua) ("BAW"); experiment: Bioassay on beet armyworm (BAW), 128-well diet tray assay; conditions: for mortality at 50 µg/cm2: 168 h, 50 μg/cm^2 on artificial diet, second instar BAW larvae, 25° C., five to seven days, average of eight wells, read-out: BAW % Control (or Mortality) rating
Summary of the method: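 Percent mortality, averaged across eight wells, was read after five to seven days at 25° C. under 14:10 light-dark. Each well held one to five second-instar larvae on artificial diet that had been treated with 50 μg/cm^2 compound in 90:10 acetone-water and dried.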

[4] = test system: Cabbage Looper (Trichoplusia ni) ("CL"); experiment: Bioassay on cabbage looper (CL), 128-well diet tray assay; conditions: for mortality at 50 µg/cm2: 168 h, 50 μg/cm^2 on artificial diet, second instar CL larvae, 25° C., five to seven days, average of eight wells, read-out: CL % Control (or Mortality) rating
Summary of the method: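 Percent mortality, averaged across eight replicate wells, was read after five to seven days at 25 °C under a 14:10 photoperiod. Each well held one to five second-instar T. ni on diet carrying a dried 50 μg/cm^2 dose applied in acetone-water 90:10.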

[5] = Table ABC (FB), activity rating class

| Compound | mortality at 200 ppm [1] [%] | YFM % Control (or Mortality) rating [2] | mortality at 50 µg/cm2 [3] [%] | mortality at 50 µg/cm2 [4] [%] | GPA (Biological Results, Insect species) [1, 5] | YFM (Biological Results, Insect species) [2, 5] | pest or weed control at 50 µg/cm2 ([3]; Table ABC (FB), activity rating class, read-out: BAW (Biological Results, Insect species)) [%] | pest or weed control at 50 µg/cm2 ([4]; Table ABC (FB), activity rating class, read-out: CL (Biological Results, Insect species)) [%] |
| --- | --- | --- | --- | --- | --- | --- | --- | --- |
| COc1ccc(N2C(=O)CS/C2=N\C(=O)NCCc2ccc(-c3ncn(-c4ccc(OC(F)(F)F)cc4)n3)cc2)c(C)c1 [P44, (Z)-1-(3-(4-methoxy-2-methylphenyl)-4-oxothiazolidin-2-ylidene)-3-(4-(1-(4-(trifluoromethoxy)phenyl)-1H-1,2,4-triazol-3-yl)phenethyl)urea] | 0 | A (80-100) | 50 to 100 | 50 to 100 | – | – | – | – |
| Cc1ccc(C(C)C)c(N2C(=O)CS/C2=N\C(=O)NCCc2ccc(-c3ncn(-c4ccc(OC(F)(F)C(F)(F)F)cc4)n3)cc2)c1 [F9, (Z)-1-(3-(2-isopropyl-5-methylphenyl)-4-oxothiazolidin-2-ylidene)-3-(4-(1-(4-(perfluoroethoxy)phenyl)-1H-1,2,4-triazol-3-yl)phenethyl)urea] | 0 | A (80-100) | 50 to 100 | 50 to 100 | – | – | – | – |
| Cc1ccc(C(C)C)c(NC(=S)NC(=O)NC2CC2c2ccc(-c3ncn(-c4ccc(OC(F)(F)F)cc4)n3)cc2)c1 (stereo not shown) [F28, N-[5-methyl-2-(propan-2-yl)phenyl]-N-[2-(4-{1-[4-(trifluoromethoxy)phenyl]-1H-1,2,4-triazol-3-yl}phenyl)cyclopropyl]dicarbonimidothioic diamide] | 0 | – | 50 to 100 | 50 to 100 | – | – | – | – |
| Cc1ccc(C(C)C)c(NC(=S)NC(=O)NCCCc2ccc(-c3ncn(-c4ccc(OC(F)(F)F)cc4)n3)cc2)c1 [F21, 1-[(2-isopropyl-5-methyl-phenyl)carbamothioyl]-3-[3-[4-[1-[4-(trifluoromethoxy)phenyl]-1H-1,2,4-triazol-3-yl]phenyl]propyl]urea] | 0 | A (80-100) | 50 to 100 | 50 to 100 | – | – | – | – |
| CCC(Cc1ccc(-c2ncn(-c3ccc(OC(F)(F)F)cc3)n2)cc1)NC(=O)/N=C1\SCC(=O)N1c1cc(Cl)ccc1C(C)C (stereo not shown) [FB44, (Z)-1-(3-(5-chloro-2-isopropylphenyl)-4-oxothiazolidin-2-ylidene)-3-(1-(4-(1-(4-(trifluoromethoxy)phenyl)-1H-1,2,4-triazol-3-yl)phenyl)butan-2-yl)urea] | – | – | – | – | B (More than 0-Less than 80) | A (80-100) | 50 to 100 | 50 to 100 |
| Cc1cccc(C)c1N1C(=O)CS/C1=N\C(=O)NC1CC1c1ccc(-c2ncn(-c3ccc(OC(F)(F)F)cc3)n2)cc1 (stereo not shown) [F32, (Z)-1-(3-(2,6-dimethylphenyl)-4-oxothiazolidin-2-ylidene)-3-(2-(4-(1-(4-(trifluoromethoxy)phenyl)-1H-1,2,4-triazol-3-yl)phenyl)cyclopropyl)urea] | 0 | – | 50 to 100 | 50 to 100 | – | – | – | – |
| CCCc1ccccc1NC(=S)NC(=O)NC1CC1c1ccc(-c2ncn(-c3ccc(OC(F)(F)F)cc3)n2)cc1 (stereo not shown) [F23] | 0 | – | 50 to 100 | 50 to 100 | – | – | – | – |
| CCCc1ccccc1N1C(=O)CS/C1=N\C(=O)NC1CC1c1ccc(-c2ncn(-c3ccc(OC(F)(F)F)cc3)n2)cc1 (stereo not shown) [F30, (Z)-1-(4-oxo-3-(2-propylphenyl)thiazolidin-2-ylidene)-3-(2-(4-(1-(4-(trifluoromethoxy)phenyl)-1H-1,2,4-triazol-3-yl)phenyl)cyclopropyl)urea] | 0 | – | 50 to 100 | 50 to 100 | – | – | – | – |
| CCc1ccc(C)cc1NC(=S)NC(=O)NC1CC1c1ccc(-c2ncn(-c3ccc(OC(F)(F)F)cc3)n2)cc1 (stereo not shown) [F27, N-(2-ethyl-5-methylphenyl)-N′-[2-(4-{1-[4-(trifluoromethoxy)phenyl]-1H-1,2,4-triazol-3-yl}phenyl)cyclopropyl]dicarbonimidothioic diamide] | 0 | – | 50 to 100 | 50 to 100 | – | – | – | – |
| Cc1ccc(C(C)C)c(N2CCS/C2=N\C(=O)NC2CC2c2ccc(-c3ncn(-c4ccc(OC(F)(F)F)cc4)n3)cc2)c1 (stereo not shown) [F34, (Z)-1-(3-(2-isopropyl-5-methylphenyl)thiazolidin-2-ylidene)-3-(2-(4-(1-(4-(trifluoromethoxy)-phenyl)-1H-1,2,4-triazol-3-yl)phenyl)cyclopropyl)urea] | 0 | – | 50 to 100 | 50 to 100 | – | – | – | – |
| CC(C)c1ccccc1NC(=S)NC(=O)N/C=C/c1ccc(-c2ncn(-c3ccc(OC(F)(F)F)cc3)n2)cc1 [F11] | 0 | – | 50 to 100 | 50 to 100 | – | – | – | – |
| CC(C)c1ccccc1N1C(=O)CS/C1=N\C(=O)NCCc1ccc(-c2ncn(-c3ccc(OC(F)(F)F)cc3)n2)cc1 [F1, (Z)-1-(3-(2-isopropylphenyl)-4-oxothiazolidin-2-ylidene)-3-(4-(1-(4-(trifluoromethoxy)phenyl)-1H-1,2,4-triazol-3-yl)phenethyl)urea] | 0 | – | 50 to 100 | 50 to 100 | – | – | – | – |
| Cc1cccc(C)c1NC(=S)NC(=O)NC1CC1c1ccc(-c2ncn(-c3ccc(OC(F)(F)F)cc3)n2)cc1 (stereo not shown) [F25] | 0 | – | 50 to 100 | 50 to 100 | – | – | – | – |
| Cc1ccc(C(C)C)c(NC(=S)NC(=O)NCCc2ccc(-c3ncn(-c4ccc(OC(F)(F)F)cc4)n3)cc2)c1 [F3, N-[5-methyl-2-isopropylphenyl]-N′-[2-(4-{1-[4-(trifluoromethoxy)-phenyl]-1H-1,2,4-triazol-3-yl}phenyl)ethyl]dicarbonimidothioic diamide] | 0 to 80 | – | 50 to 100 | 50 to 100 | – | – | – | – |
| CCc1ccc(C)cc1N1C(=O)CS/C1=N\C(=O)NC1CC1c1ccc(-c2ncn(-c3ccc(OC(F)(F)F)cc3)n2)cc1 (stereo not shown) [F33, (Z)-1-(3-(2-ethyl-5-methylphenyl)-4-oxothiazolidin-2-ylidene)-3-(2-(4-(1-(4-(trifluoromethoxy)phenyl)-1H-1,2,4-triazol-3-yl)phenyl)cyclopropyl)urea] | 0 | – | 50 to 100 | 50 to 100 | – | – | – | – |
| CC(C)c1ccccc1N1C(=O)CS/C1=N\C(=O)N/C=C/c1ccc(-c2ncn(-c3ccc(OC(F)(F)F)cc3)n2)cc1 [F12] | 0 | – | 50 to 100 | 50 to 100 | – | – | – | – |
| CC(C)c1ccccc1NC(=S)NC(=O)NC1CC1c1ccc(-c2ncn(-c3ccc(OC(F)(F)F)cc3)n2)cc1 (stereo not shown) [F22] | 0 | – | 50 to 100 | 50 to 100 | – | – | – | – |
| CCc1cccc(C)c1NC(=S)NC(=O)NC1CC1c1ccc(-c2ncn(-c3ccc(OC(F)(F)F)cc3)n2)cc1 (stereo not shown) [F24, N-(2-ethyl-6-methylphenyl)-N′-[2-(4-(1-[4-(trifluoromethoxy)phenyl]-1H-1,2,4-triazol-3-yl)phenyl)cyclopropyl]dicarbonimidothioic diamide] | 0 | – | 50 to 100 | 50 to 100 | – | – | – | – |
| Cc1ccc(C(C)C)c(N2C(=O)CS/C2=N\C(=O)NC(C)Cc2ccc(-c3ncn(-c4ccc(OC(F)(F)F)cc4)n3)cc2)c1 (stereo not shown) [F8, (Z)-1-(3-(2-isopropropyl-5-methylphenyl)-4-oxothiazolidin-2-ylidene)-3-(1-(4-(1-(4-(trifluoromethoxy)phenyl)-1H-1,2,4-triazol-3-yl)phenyl)propan-2-yl)urea] | 0 | – | 50 to 100 | 50 to 100 | – | – | – | – |
| C/C(=C\NC(=O)/N=C1\SCC(=O)N1c1ccccc1C(C)C)c1ccc(-c2ncn(-c3ccc(OC(F)(F)F)cc3)n2)cc1 [F13, (Z)-1-(3-(2-isopropylphenyl)-4-oxothiazolidin-2-ylidene)-3-((E)-2-(4-(1-(4-(trifluoromethoxy)phenyl)-1H-1,2,4-triazol-3-yl)phenyl)prop-1-en-1-yl)urea] | 0 | – | 50 to 100 | 50 to 100 | – | – | – | – |
